Data from US12389930B2, “Breast milk-derived Lactobacillus plantarum and use thereof” (Beijing Sanyuan Foods Co., Ltd., priority 2020, dated 2025).
In brackets after ≈: the same amount, converted by molar mass.

Test system: Lactobacillus plantarum P6
Assay: Drug resistance determination (E-test strips, MIC)
Assay type: cell-based
Set-up: key to Susceptibility class of P6 to the antibiotic: S: susceptible; I: intermediate; R: resistance
Conditions: for Susceptibility of P6 to the antibiotic (in words): summary of Table 3; for MIC: Lactiplantibacillus plantarum, P6, read-out: Minimum inhibitory concentration MIC
Description: The cultured P6 bacteria solution was activated for three generations, and streaked on the MRS solid medium plate, which was then cultured in an anaerobic incubator at 37° C. for 24 hours. A single colony was picked up and dissolved in normal saline to prepare a suspension equivalent to 0.5 […] concentration, which was then coated on an MH solid medium. After drying, ten E-test strips were attached onto the MH solid medium, and cultured at 37° C. for 24-48 hours. The MIC value (minimum inhibitory concentration value) was determined according to the inhibition zone diameter. Escherichia coli ATCC25922 and Staphylococcus aureus ATCC25923 were used as quality-control strains. Quality-control strains were used as control for each batch test, and the MIC of the quality-control strains was required to be within the range specified by CLSI (Clinical and Laboratory Standards […]). An MH solid plate without antibiotics was used as blank control.

[1] = E-test, MH solid medium, 37° C., 24-48 hours

SMILES	Minimum inhibitory concentration MIC [1]	Susceptibility class of P6 to the antibiotic (E-test, class after the slash in the MIC cell)	Susceptibility of P6 to the antibiotic (in words)	MIC [1]
CC1(C)S[C@@H]2[C@H](NC(=O)Cc3ccccc3)C(=O)N2[C@H]1C(=O)O [penicillin G]	32 mg/L (≈ 95.7 µM)	R	resistant	
CO/N=C(\C(=O)N[C@@H]1C(=O)N2C(C(=O)O)=C(CSc3nc(=O)c(=O)[nH]n3C)CS[C@H]12)c1csc(N)n1 [ceftriaxone]			extremely susceptible	0.125 mg/L (≈ 0.225 µM)
CC1(C)S[C@@H]2[C@H](NC(=O)[C@H](N)c3ccccc3)C(=O)N2[C@H]1C(=O)O [ampicillin]			extremely susceptible	1.5 mg/L (≈ 4.29 µM)
NCC[C@H](O)C(=O)N[C@@H]1C[C@H](N)[C@@H](O[C@H]2O[C@H](CN)[C@@H](O)[C@H](O)[C@H]2O)[C@H](O)[C@H]1O[C@H]1O[C@H](CO)[C@@H](O)[C@H](N)[C@H]1O [amikacin]			extremely susceptible	2 mg/L (≈ 3.42 µM)
CCC[C@@H]1C[C@@H](C(=O)N[C@@H]([C@H]2O[C@H](SC)[C@H](O)[C@@H](O)[C@H]2O)[C@H](C)Cl)N(C)C1 [clindamycin]				0.016 mg/L (≈ 0.0376 µM)
CC[C@H]1OC(=O)[C@H](C)[C@@H](O[C@H]2C[C@@](C)(OC)[C@@H](O)[C@H](C)O2)[C@H](C)[C@@H](O[C@@H]2O[C@H](C)C[C@H](N(C)C)[C@H]2O)[C@](C)(O)C[C@@H](C)C(=O)[C@H](C)[C@@H](O)[C@]1(C)O [erythromycin]			extremely susceptible	0.38 mg/L (≈ 0.518 µM)
O=C(N[C@H](CO)[C@H](O)c1ccc([N+](=O)[O-])cc1)C(Cl)Cl [chloramphenicol]			intermediately susceptible	16 mg/L (≈ 49.5 µM)
CN(C)[C@@H]1C(O)=C(C(N)=O)C(=O)[C@@]2(O)C(O)=C3C(=O)c4c(O)cccc4[C@@](C)(O)[C@H]3C[C@@H]12 [tetracycline]				256 mg/L (≈ 576 µM)
CC[C@H]1OC(=O)[C@H](C)[C@@H](O[C@H]2C[C@@](C)(OC)[C@@H](O)[C@H](C)O2)[C@H](C)[C@@H](O[C@@H]2O[C@H](C)C[C@H](N(C)C)[C@H]2O)[C@](C)(O)C[C@@H](C)CN(C)[C@H](C)[C@@H](O)[C@]1(C)O [azithromycin, Azithromycin]			extremely susceptible	0.094 mg/L (≈ 0.126 µM)
